# Test results taken from the kinase profiling compilation of Christmann-Franck et al. (2016).
# “And” between values parts separate entries of the source, which are not always exact repeats. Equal values may be shown once.
# Tests used:
# Test in all cases: radiometric filter-binding kinase assay, Kinase HotSpot
# Details in all cases: compound 0.5 µM; ATP 10 µM
# CHEK1 (human) = CHEK1 (human) (UniProt O14757)
# EPHA3 (human) = EPHA3 (human) (UniProt P29320)
# NEK11 (human) = NEK11 (human) (UniProt Q8NG66)
# PRKCA (human) = PRKCA (human) (UniProt P17252)
# PBK (human) = PBK (human) (UniProt Q96KB5)
# PRKCB2 (human) = PRKCB2 (human) (UniProt P05771)
# YES1 (human) = YES1 (human) (UniProt P07947)
# CDC42BPA (human) = CDC42BPA (human) (UniProt Q5VT25)
# MET (human) = MET (human) (UniProt P08581)
# NEK1 (human) = NEK1 (human) (UniProt Q96PY6)
# MAPKAPK5 (human) = MAPKAPK5 (human) (UniProt Q8IW41)
# DCLK2 (human) = DCLK2 (human) (UniProt Q8N568)
# HCK (human) = HCK (human) (UniProt P08631)
# SIK2 (human) = SIK2 (human) (UniProt Q9H0K1)
# FYN (human) = FYN (human) (UniProt P06241)
# CSNK2A1 (human) = CSNK2A1 (human) (UniProt P68400)
# NTRK3 (human) = NTRK3 (human) (UniProt Q16288)
# FLT1 (human) = FLT1 (human) (UniProt P17948)
# CAMK4 (human) = CAMK4 (human) (UniProt Q16566)
# MAPK3 (human) = MAPK3 (human) (UniProt P27361)
# PRKCH (human) = PRKCH (human) (UniProt P24723)
# EPHA1 (human) = EPHA1 (human) (UniProt P21709)
# MAPK8 (human) = MAPK8 (human) (UniProt P45983)
# CDK6 CCND3 (human) = CDK6 CCND3 (human) (UniProt P30281+Q00534)
# PTK2B (human) = PTK2B (human) (UniProt Q14289)
# CDK2 CCNE1 (human) = CDK2 CCNE1 (human) (UniProt P24941+P24864)
# PAK3 (human) = PAK3 (human) (UniProt O75914)
# CLK1 (human) = CLK1 (human) (UniProt P49759)
# FGFR3 (human) = FGFR3 (human) (UniProt P22607)
# MAP3K3 (human) = MAP3K3 (human) (UniProt Q99759)
# DYRK1B (human) = DYRK1B (human) (UniProt Q9Y463)
# RPS6KA4 KD2 (human) = RPS6KA4 KD2 (human) (UniProt O75676)
# CAMKK2 (human) = CAMKK2 (human) (UniProt Q96RR4)
# GRK7 (human) = GRK7 (human) (UniProt Q8WTQ7)
# PLK1 (human) = PLK1 (human) (UniProt P53350)
# WNK2 (human) = WNK2 (human) (UniProt Q9Y3S1)
# PRKCZ (human) = PRKCZ (human) (UniProt Q05513)
# GRK4 (human) = GRK4 (human) (UniProt P32298)
# AURKA (human) = AURKA (human) (UniProt O14965)
# TBK1 (human) = TBK1 (human) (UniProt Q9UHD2)
# MARK2 (human) = MARK2 (human) (UniProt Q7KZI7)
# LYN (human) = LYN (human) (UniProt P07948)
# AURKA (human), sequence (O14965 whole entry, looked up): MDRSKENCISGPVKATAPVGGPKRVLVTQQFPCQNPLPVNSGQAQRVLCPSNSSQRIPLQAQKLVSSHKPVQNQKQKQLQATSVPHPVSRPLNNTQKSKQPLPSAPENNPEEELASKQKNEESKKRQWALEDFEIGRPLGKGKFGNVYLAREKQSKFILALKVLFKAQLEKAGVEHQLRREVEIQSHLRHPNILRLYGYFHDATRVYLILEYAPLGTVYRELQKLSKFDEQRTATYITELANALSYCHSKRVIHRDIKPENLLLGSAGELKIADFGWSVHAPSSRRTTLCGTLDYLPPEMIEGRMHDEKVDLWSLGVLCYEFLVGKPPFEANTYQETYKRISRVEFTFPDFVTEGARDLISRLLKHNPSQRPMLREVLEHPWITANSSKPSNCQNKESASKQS
# HCK (human), sequence (P08631 whole entry, looked up): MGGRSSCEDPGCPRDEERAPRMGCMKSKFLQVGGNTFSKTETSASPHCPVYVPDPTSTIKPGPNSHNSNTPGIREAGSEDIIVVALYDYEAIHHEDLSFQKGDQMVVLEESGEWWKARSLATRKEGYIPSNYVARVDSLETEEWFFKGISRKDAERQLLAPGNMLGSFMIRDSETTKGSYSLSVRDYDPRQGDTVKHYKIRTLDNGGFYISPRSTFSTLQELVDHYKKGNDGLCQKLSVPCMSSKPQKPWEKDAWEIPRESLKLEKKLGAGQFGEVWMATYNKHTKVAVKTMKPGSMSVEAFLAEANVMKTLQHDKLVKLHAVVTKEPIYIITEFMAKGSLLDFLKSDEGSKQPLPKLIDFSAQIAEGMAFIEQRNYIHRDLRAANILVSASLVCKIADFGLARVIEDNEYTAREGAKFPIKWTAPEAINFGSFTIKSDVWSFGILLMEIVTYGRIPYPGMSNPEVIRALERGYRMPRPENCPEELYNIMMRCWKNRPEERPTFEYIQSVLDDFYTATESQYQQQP
# CLK1 (human), sequence (P49759 whole entry, looked up): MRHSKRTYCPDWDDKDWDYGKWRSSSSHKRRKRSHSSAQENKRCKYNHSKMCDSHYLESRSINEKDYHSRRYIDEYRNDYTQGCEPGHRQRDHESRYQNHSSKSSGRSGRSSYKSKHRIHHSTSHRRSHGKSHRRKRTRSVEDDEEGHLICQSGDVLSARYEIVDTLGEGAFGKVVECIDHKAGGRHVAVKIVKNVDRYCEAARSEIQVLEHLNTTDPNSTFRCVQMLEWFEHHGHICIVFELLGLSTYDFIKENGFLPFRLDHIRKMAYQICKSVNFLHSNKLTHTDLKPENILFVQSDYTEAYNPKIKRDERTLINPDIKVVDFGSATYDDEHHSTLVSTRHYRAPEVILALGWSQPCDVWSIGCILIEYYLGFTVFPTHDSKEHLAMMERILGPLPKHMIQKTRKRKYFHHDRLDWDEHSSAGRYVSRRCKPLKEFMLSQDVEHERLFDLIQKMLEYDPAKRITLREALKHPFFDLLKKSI
# CAMKK2 (human), sequence (Q96RR4 whole entry, looked up): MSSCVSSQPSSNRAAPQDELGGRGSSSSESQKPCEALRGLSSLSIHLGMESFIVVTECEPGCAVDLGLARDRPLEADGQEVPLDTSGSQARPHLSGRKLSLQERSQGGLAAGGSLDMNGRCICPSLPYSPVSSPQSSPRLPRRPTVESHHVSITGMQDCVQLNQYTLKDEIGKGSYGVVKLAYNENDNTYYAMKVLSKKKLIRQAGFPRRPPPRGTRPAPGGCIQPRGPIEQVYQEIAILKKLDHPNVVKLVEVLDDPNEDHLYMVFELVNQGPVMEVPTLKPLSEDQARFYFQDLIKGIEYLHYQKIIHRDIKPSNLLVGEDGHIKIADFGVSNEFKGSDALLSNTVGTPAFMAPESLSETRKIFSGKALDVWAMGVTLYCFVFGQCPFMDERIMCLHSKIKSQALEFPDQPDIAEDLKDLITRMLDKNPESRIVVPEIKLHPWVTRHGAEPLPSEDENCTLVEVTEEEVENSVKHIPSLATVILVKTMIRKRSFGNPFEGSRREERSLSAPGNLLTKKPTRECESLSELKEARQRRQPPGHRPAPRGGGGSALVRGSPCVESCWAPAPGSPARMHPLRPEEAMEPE
# PRKCB2 (human), sequence (P05771 whole entry, looked up): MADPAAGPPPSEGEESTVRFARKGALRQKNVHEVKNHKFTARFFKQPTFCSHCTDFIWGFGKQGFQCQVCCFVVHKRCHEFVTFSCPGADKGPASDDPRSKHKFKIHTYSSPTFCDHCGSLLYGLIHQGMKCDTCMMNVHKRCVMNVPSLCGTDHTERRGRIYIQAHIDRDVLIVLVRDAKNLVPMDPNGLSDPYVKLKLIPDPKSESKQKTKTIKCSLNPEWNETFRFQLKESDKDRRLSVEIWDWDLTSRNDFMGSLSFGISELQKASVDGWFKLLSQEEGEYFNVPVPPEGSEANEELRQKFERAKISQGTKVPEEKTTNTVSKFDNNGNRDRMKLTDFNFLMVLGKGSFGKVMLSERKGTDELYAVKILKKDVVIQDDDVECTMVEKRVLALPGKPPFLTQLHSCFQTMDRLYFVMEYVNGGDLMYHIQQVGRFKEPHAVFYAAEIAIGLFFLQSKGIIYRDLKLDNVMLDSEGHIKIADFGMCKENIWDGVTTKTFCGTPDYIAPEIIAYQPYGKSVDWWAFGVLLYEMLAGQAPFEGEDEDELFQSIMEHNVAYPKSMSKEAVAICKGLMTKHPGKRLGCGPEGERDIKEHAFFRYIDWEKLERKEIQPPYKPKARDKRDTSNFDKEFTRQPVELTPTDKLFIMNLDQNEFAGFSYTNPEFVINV
# MET (human), sequence (P08581 whole entry, looked up): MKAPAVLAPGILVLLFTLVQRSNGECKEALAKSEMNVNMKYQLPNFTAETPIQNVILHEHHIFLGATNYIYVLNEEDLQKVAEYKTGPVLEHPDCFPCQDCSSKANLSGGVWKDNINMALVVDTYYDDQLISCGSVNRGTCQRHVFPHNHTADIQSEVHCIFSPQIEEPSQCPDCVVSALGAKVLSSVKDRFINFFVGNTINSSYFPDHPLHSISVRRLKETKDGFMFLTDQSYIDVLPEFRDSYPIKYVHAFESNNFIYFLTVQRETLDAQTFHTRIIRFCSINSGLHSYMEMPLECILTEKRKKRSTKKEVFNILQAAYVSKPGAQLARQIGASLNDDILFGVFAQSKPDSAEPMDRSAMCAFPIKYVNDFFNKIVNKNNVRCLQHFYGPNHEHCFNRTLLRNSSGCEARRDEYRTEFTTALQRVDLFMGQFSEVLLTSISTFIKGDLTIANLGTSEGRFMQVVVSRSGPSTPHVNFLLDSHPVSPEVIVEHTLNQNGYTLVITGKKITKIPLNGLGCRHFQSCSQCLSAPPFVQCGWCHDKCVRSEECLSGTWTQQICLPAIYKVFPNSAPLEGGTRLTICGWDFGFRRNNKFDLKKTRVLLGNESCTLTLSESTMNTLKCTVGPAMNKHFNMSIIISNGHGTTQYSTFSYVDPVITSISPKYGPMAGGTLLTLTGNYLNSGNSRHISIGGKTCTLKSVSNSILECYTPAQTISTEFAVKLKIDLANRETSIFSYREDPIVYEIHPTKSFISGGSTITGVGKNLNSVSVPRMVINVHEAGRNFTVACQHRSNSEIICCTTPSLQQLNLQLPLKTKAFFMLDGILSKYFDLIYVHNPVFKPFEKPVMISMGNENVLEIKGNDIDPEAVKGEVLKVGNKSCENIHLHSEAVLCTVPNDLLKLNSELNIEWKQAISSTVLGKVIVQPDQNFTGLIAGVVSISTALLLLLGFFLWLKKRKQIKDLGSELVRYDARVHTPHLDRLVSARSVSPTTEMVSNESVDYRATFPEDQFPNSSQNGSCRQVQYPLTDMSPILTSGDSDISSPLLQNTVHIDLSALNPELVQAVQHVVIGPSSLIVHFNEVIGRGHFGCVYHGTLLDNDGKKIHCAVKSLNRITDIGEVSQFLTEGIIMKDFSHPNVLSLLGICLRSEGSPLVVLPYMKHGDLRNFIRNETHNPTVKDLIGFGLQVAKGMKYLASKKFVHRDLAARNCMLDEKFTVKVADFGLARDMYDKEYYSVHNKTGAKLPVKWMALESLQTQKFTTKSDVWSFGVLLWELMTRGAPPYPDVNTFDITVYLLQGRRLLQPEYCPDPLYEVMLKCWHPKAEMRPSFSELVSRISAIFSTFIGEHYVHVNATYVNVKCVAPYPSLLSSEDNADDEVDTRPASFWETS
# NEK11 (human), sequence (Q8NG66 whole entry, looked up): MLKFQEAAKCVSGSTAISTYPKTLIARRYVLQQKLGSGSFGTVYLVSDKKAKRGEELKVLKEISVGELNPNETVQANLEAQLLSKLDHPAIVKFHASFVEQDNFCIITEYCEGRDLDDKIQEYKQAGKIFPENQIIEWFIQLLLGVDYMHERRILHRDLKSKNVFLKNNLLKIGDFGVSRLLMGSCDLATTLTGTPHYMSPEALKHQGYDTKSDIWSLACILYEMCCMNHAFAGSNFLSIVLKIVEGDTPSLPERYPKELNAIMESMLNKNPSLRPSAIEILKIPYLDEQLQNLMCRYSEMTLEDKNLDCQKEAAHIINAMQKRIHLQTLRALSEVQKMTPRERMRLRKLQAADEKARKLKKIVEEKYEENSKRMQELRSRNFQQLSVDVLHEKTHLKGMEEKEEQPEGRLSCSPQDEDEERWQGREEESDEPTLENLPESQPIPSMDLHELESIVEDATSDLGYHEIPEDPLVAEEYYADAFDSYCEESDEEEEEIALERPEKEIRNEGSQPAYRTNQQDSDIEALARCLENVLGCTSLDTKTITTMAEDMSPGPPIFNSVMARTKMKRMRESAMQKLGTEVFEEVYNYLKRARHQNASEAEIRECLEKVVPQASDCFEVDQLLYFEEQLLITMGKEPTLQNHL
# PBK (human), sequence (Q96KB5 whole entry, looked up): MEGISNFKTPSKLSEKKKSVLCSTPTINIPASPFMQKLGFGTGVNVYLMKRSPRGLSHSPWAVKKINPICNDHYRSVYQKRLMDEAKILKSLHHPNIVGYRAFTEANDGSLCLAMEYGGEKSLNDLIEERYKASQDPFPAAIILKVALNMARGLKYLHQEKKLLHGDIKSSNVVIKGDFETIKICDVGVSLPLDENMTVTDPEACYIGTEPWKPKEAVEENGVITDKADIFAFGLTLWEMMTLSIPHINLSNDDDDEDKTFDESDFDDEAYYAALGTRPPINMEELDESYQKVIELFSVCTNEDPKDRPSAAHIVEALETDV
smiles,measurement,setting,value
CCn1cnc2c(Nc3cccc(Cl)c3)nc(N[C@@H]3CCCC[C@@H]3N)nc21,residual activity,CHEK1 (human),85.8%
same,residual activity,EPHA3 (human),85.7%
same,residual activity,NEK11 (human),101%
same,residual activity,PRKCA (human),68.2%
same,residual activity,PBK (human),105%
same,residual activity,PRKCB2 (human),79.4%
same,residual activity,YES1 (human),35.4%
same,residual activity,CDC42BPA (human),93.4%
same,residual activity,MET (human),102%
same,residual activity,NEK1 (human),95%
same,residual activity,MAPKAPK5 (human),98.3%
same,residual activity,DCLK2 (human),93.1%
same,residual activity,HCK (human),69.6%
same,residual activity,SIK2 (human),89.1%
same,residual activity,FYN (human),48.6%
same,residual activity,CSNK2A1 (human),84.2%
same,residual activity,NTRK3 (human),23.4%
same,residual activity,FLT1 (human),92.8%
same,residual activity,CAMK4 (human),103%
same,residual activity,MAPK3 (human),108%
same,residual activity,PRKCH (human),77.6%
same,residual activity,EPHA1 (human),79.6%
same,residual activity,MAPK8 (human),97.6%
same,residual activity,CDK6 CCND3 (human),76.9%
same,residual activity,PTK2B (human),85.7%
same,residual activity,CDK2 CCNE1 (human),16.8%
same,residual activity,PAK3 (human),91.9%
same,residual activity,CLK1 (human),89.3%
same,residual activity,FGFR3 (human),90.4%
same,residual activity,MAP3K3 (human),103%
same,residual activity,DYRK1B (human),94.4%
same,residual activity,RPS6KA4 KD2 (human),88.2%
same,residual activity,CAMKK2 (human),86.1%
same,residual activity,GRK7 (human),97.9%
same,residual activity,PLK1 (human),86%
same,residual activity,WNK2 (human),94.1%
same,residual activity,PRKCZ (human),106%
same,residual activity,GRK4 (human),96.2%
same,residual activity,AURKA (human),105%
same,residual activity,TBK1 (human),92.8%
same,residual activity,MARK2 (human),90.1%
CC(C)[C@H](CO)Nc1nc(Nc2cc(N)cc(Cl)c2)c2ncn(C(C)C)c2n1,residual activity,CHEK1 (human),96.2%
same,residual activity,EPHA3 (human),86.6%
same,residual activity,NEK11 (human),84.2%
same,residual activity,PRKCA (human),66.1%
same,residual activity,PBK (human),75.6%
same,residual activity,PRKCB2 (human),97.3%
same,residual activity,YES1 (human),7.03%
same,residual activity,CDC42BPA (human),99.4%
same,residual activity,MET (human),109%
same,residual activity,NEK1 (human),81.5%
same,residual activity,MAPKAPK5 (human),95.8%
same,residual activity,DCLK2 (human),105%
same,residual activity,HCK (human),27.3%
same,residual activity,SIK2 (human),104%
same,residual activity,FYN (human),18.9%
same,residual activity,CSNK2A1 (human),99.3%
same,residual activity,NTRK3 (human),4.42%
same,residual activity,FLT1 (human),97.5%
same,residual activity,CAMK4 (human),97.4%
same,residual activity,MAPK3 (human),106%
same,residual activity,PRKCH (human),99.4%
same,residual activity,EPHA1 (human),76.9%
same,residual activity,MAPK8 (human),93.4%
same,residual activity,PTK2B (human),63.6%
same,residual activity,PAK3 (human),101%
same,residual activity,CLK1 (human),51.9%
same,residual activity,FGFR3 (human),79.4%
same,residual activity,MAP3K3 (human),100%
same,residual activity,DYRK1B (human),38.3%
same,residual activity,RPS6KA4 KD2 (human),89.3%
same,residual activity,CAMKK2 (human),33.2%
same,residual activity,GRK7 (human),79.3%
same,residual activity,PLK1 (human),54.9%
same,residual activity,WNK2 (human),112%
same,residual activity,PRKCZ (human),101%
same,residual activity,GRK4 (human),103%
same,residual activity,AURKA (human),80.5%
same,residual activity,TBK1 (human),86.6%
same,residual activity,MARK2 (human),74.1%
O=C1NC(=O)/C(=C\c2ccc3nccnc3c2)S1,residual activity,CHEK1 (human),99.4%
same,residual activity,EPHA3 (human),97.1%
same,residual activity,NEK11 (human),111%
same,residual activity,PRKCA (human),102%
same,residual activity,PBK (human),93%
same,residual activity,PRKCB2 (human),103%
same,residual activity,YES1 (human),89.3%
same,residual activity,CDC42BPA (human),93.1%
same,residual activity,MET (human),91.2%
same,residual activity,NEK1 (human),73.6%
same,residual activity,DCLK2 (human),94.3%
same,residual activity,HCK (human),92.2%
same,residual activity,SIK2 (human),102%
same,residual activity,LYN (human),99.2% and 99.6%
same,residual activity,FYN (human),95.3%
same,residual activity,CSNK2A1 (human),3.08%
same,residual activity,NTRK3 (human),95.3%
same,residual activity,FLT1 (human),87.5%
same,residual activity,CAMK4 (human),106%
same,residual activity,MAPK3 (human),87.8%
same,residual activity,PRKCH (human),89.7%
same,residual activity,EPHA1 (human),91.8%
same,residual activity,MAPK8 (human),91.5%
same,residual activity,CDK6 CCND3 (human),95.8%
same,residual activity,PTK2B (human),106%
same,residual activity,CDK2 CCNE1 (human),91.8%
same,residual activity,PAK3 (human),97.4%
same,residual activity,CLK1 (human),80.1%
same,residual activity,FGFR3 (human),97.3%
same,residual activity,MAP3K3 (human),100%
same,residual activity,DYRK1B (human),31.3%
same,residual activity,RPS6KA4 KD2 (human),115%
same,residual activity,CAMKK2 (human),72.9%
same,residual activity,GRK7 (human),99.8%
same,residual activity,PLK1 (human),100%
same,residual activity,WNK2 (human),115%
same,residual activity,PRKCZ (human),103%
same,residual activity,GRK4 (human),106%
same,residual activity,AURKA (human),97.2%
same,residual activity,TBK1 (human),90.6%
same,residual activity,MARK2 (human),93%
